Earlier results on 4 compounds are cited in patent US12083078B2, “Parenteral cannabinoid formulations and uses thereof” (priority 2020, dated 2024).

The structures appear in SMILES notation.

For the series the following is noted: buffering pH range.
In the case of `CC(=O)O` [Acetic Acid], the pH range is reported as 4-6.
Regarding `O=C(O)CC(O)(CC(=O)O)C(=O)O` [Citric Acid], the pH range is on record as 3-7.
Regarding `CC(O)C(=O)O` (stereo not shown) [Lactic Acid], the pH range is 3-4.5.
`O=P(O)(O)O` [Sodium Phosphate]: the pH range is reported as 8-8.
